For this assay, the system named is CFTL12 Mast cells stimulated with IgE/antigen complex (TNF-alpha release). Kind of assay: Inhibition of TNF-alpha production from IgE/antigen stimulated mast cells. As to conditions: 60 minutes before IgE/antigen stimulation; for inhibition of TNF-alpha release: carrageenan 200 μg/ml, 6 hours at 37° C., supernatant ELISA (FIG. 1). In kind it is cell-based, mouse. The protocol:
TNF-alpha is a mediator that is central in an inflammatory process as observed during infections, and autoimmune diseases. It is released by white blood cells, mast cells, endothelium and several other tissues in the course of damage.
CFTL12 Mast cells were incubated with iota or kappa carrageenan at a concentration of 200 μg/ml. 60 minutes later the cells were stimulated with an IgE/antigen complex. Cells were incubated at 37° C. for 6 hours and TNF-alpha in the supernatant was determined by a commercial mouse TNF-alpha ELISA (Bender-Med-Systems). Error bars indicate the standard deviation between 4 independent wells. 1=non-stimulated; 2=IgE/antigen stimulation; 3=lambda carrageenan pretretament+subsequent IgE/antigen stimulation; 4=kappa carrageenan pretreatment++subsequent IgE/antigen stimulation, 5=iota-carrageenan pretreatment+subsequent IgE/antigen stimulation. The Y-axis mirrors the concentration of TNF-alpha in pg/ml.
Mast cells were incubated with iota-carrageenan at varying concentrations. 60 minutes later the cells were stimulated with IgE/antigen complex. Cells were incubated at 37° C. for 6 hours and TNF-alpha in the supernatant was determined by a commercial mouse TNF-alpha ELISA (Bender-Med-Systems). Error bars indicate the standard deviation between 4 independent wells. 1=non-stimulated; 2=IgE/antigen stimulated, 3=iota-carrageenan 200 μg/ml, 4=iota-carrageenan 66 μg/ml, 5=iota-carrageenan 6.6 μg/ml, 6=iota-carrageenan 0.6 μg/ml. The Y-axis represents the concentration of TNF-alpha in pg/ml.

iota-carrageenan: the “inhibition of TNF-alpha release” value is reported as “inhibit TNF-alpha release”. Further, the “dose dependence of inhibition of TNF-alpha production” value (200, 66, 6.6, 0.6 μg/ml, 6 hours (FIG. 2)) is on record as “Dose-Dependent Inhibition”.

On to kappa carrageenan, for which the “inhibition of TNF-alpha release” value is “inhibit TNF-alpha release”.

For the substance lambda carrageenan [reference compound], the “inhibition of TNF-alpha release” value is on record as “not”.

Values taken from patent US20120058206A1, “ANTIALLERGIC MARINE BIOPOLYMERS” (MARINOMED BIOTECHNOLOGIE GMBH, priority 2008, published 2012).
